Measurements from patent publication US20230257366A1, “SULFUR-CONTAINING ISOINDOLINE DERIVATIVE, AND PREPARATION METHOD THEREFOR AND MEDICAL USE THEREOF” (JIANGSU HENGRUI PHARMACEUTICALS CO., LTD., priority 2020, published 2023).

What was measured:
[1] = Pharmacokinetic evaluation in mice after intragastric administration (LC/MS/MS); assay type: in vivo; conditions: female, mouse, plasma, po, mice, intragastric, 2 mg/kg
Procedure: The drug concentration in the plasma of the test animals (mice) at different time points after intragastric administration of the compound of Example 6 and the control example CC-92480 was determined by an LC/MS/MS method. The pharmacokinetic behavior of the compound of the present disclosure in mice was studied and its pharmacokinetic profile was evaluated.
Compound of Example 6 and control example CC-92480.
Eighteen mice, female, purchased from Beijing Vital River Laboratory Animal Technology Co., Ltd., with animal production license number of SCXK (Shanghai) 2017-0005.
A certain amount of compound of Example 6 was weighed, dissolved by adding 5% by volume of DMSO and 5% Tween 80 (Shanghai Titan Scientific Co., Ltd.), and then prepared into a 0.1 mg/mL clear solution by adding 90% normal saline.
A certain amount of the control example CC-92480 was weighed, dissolved by adding 5% by volume of DMSO and 5% Tween 80 (Shanghai Titan Scientific Co., Ltd.), and then prepared into a 0.1 mg/mL clear solution by adding 90% normal saline.
Nine mice were intragastrically administered with the compound of Example 6 at a dose of 2 mg/kg and at a volume of 0.2 mL/10 g.
Nine mice were intragastrically administered with the control example CC-92480 at a dose of 2 mg/kg and at a volume of 0.2 mL/10 g.
Mice were intragastrically administered with the compound of Example 6 and the control example CC-92480, and 0.2 mL of blood was collected before the administration and 0.25 h, 0.5 h, 1.0 h, 2.0 h, 4.0 h, 6.0 h, 8.0 h, 11.0 h and 24.0 h after the administration (3 animals at each time point), placed in EDTA-K2 anticoagulation tubes, and centrifuged at 10,000 rpm for 1 min(4° C.). Plasma was separated within 1 h, and stored at −20° C. for testing. The process from blood collection to centrifugation was performed under an ice bath.
The content of the test compounds at different concentrations in mouse plasma after the administration was determined: 25 μL of mouse plasma at each time point after the administration was mixed with 50 μL (100 ng/mL) of internal standard solution camptothecin (National Institutes for Drug Control) and 175 μL of acetonitrile. The mixture was vortexed for 5 min and centrifuged for 10 min (3700 rpm/min), and 1 μL of the supernatant of the plasma sample was taken for LC/MS/MS assay (API4000 triple quadrupole tandem mass spectrometer, Applied Biosystems, USA; Shimadzu, LC-30AD ultra high performance liquid chromatography system, Shimadzu, Japan).

[2] = Effect on body weight of tumor-bearing CB-17 SCID mice; assay type: in vivo; conditions: 1 mg/kg qd, 11 days
Procedure: NCI-H929 cells in a logarithmic growth phase were inoculated subcutaneously into the right flank of 30 female CB-17 SCID mice at 5×10^6 cells/mouse/100 μL (containing 50 μL of Matrigel). After 10 days, when the tumor volume of the tumor-bearing mice reached about 200 mm^3, the mice were randomly divided into 3 groups according to the tumor volume and body weight: vehicle control group, CC-92480-1 mpk, compound of Example 6-1 mpk, with 7 mice in each group. The day of grouping was set as Day 0 (D0), and intragastric administration was performed once a day for 11 days (Table 2). For the tumor-bearing mice, the tumor volume was measured with a vernier caliper and the body weight was measured with a balance twice a week, and the data were recorded.
The effect of the compound of Example 6 and the control example CC-92480 on the body weight of CB-17 SCID mice is shown in FIG. 2.

Vd/F ([1]; read-out: Apparent volume of distribution Vz/F): 1.79 L/kg
AUC ([1]; read-out: Area under curve AUC): 4690 ng·h/mL
CL/F ([1]; read-out: Clearance CL/F): 7.1 mL/min/kg
half-life ([1]; read-out: Half-life T½ (converted)): 2.9 h
Cmax ([1]; read-out: Plasma concentration Cmax): 799 ng/mL
MRT ([1]; read-out: Residence time MRT): 4.6 h
Structure (SMILES): N#Cc1ccc(N2CCC(Sc3ccc(COc4cccc5c4CN([C@H]4CCC(=O)NC4=O)C5=O)cn3)CC2)c(F)c1 [Compound 6, (S)-4-(4-((5-(((2-(2,6-dioxopiperidin-3-yl)-1-oxoisoindolin-4-yl)oxy)methyl)pyridin-2-yl)thio)piperidin-1-yl)-3-fluorobenzonitrile]
influence on the body weight of mice [2]: no influence on the body weight of mice
